# Test results from ChEMBL document CHEMBL4428097, “Gallic acid induces apoptosis in EGFR-mutant non-small cell lung cancers by accelerating EGFR turnover” (Bioorg Med Chem Lett, 2016).
# Activity calls are given as the source filed them. No cut-off for these calls is given here.
# How the values were obtained:
# NCI-H1975 [1] = test: Effect on EGFR mRNA levels in human NCI-H1975 cells harboring EGFR-mutant at 30 uM by quantitative RT-PCR method; format: functional, cell-based
# PC-9 [2] = test: Increase in cleaved caspase3 level in human erlotinib-resistant PC9 cells harboring EGFR T790M mutant at 30 and 60 uM by immunoblotting analysis; format: functional, cell-based
# NCI-H1650 [3] = test: Decrease in EGFR level in human NCI-H1650 cells harboring EGFR-mutant at 30 and 60 uM by […]; format: functional, cell-based
# PC-9 [4] = test: Antiproliferative activity against human erlotinib-resistant PC9 cells harboring EGFR T790M mutant assessed as cell viability measured after 24 hrs; format: functional, cell-based
# A549 [5] = test: Increase in cleaved caspase3 level in human A549 cells harboring wild-type EGFR at 30 and 60 uM by immunoblotting analysis; format: functional, cell-based
# [6] = target: Epidermal growth factor receptor (Homo sapiens) (UniProt P00533); test: Inhibition of EGFR-mediated ERK phosphorylation in human A549 cells harboring wild-type EGFR at 30 and 60 uM measured after 24 hrs by immunoblotting analysis; format: cell-based
# NCI-H1650 [7] = test: Effect on ROS level in human NCI-H1650 cells harboring EGFR-mutant at 60 uM; format: functional, cell-based
# PC-9 [8] = test: Increase in PARP level in human erlotinib-resistant PC9 cells harboring EGFR T790M mutant at 30 and 60 uM by immunoblotting analysis; format: functional, cell-based
# NCI-H460 [9] = test: Increase in PARP level in human NCI-H460 cells harboring wild-type EGFR at 30 and 60 uM by immunoblotting analysis; format: functional, cell-based
# PC-9 [10] = test: Induction of apoptosis in human erlotinib-resistant PC9 cells harboring EGFR T790M mutant assessed as cell death at 30 and 60 uM measured after 24 hrs by Annexin-V/PI staining based analysis; format: functional
# PC-9 [11] = test: Increase in cleaved caspase3 level in human gefitinib-resistant PC9 cells harboring EGFR T790M mutant at 30 and 60 uM by immunoblotting analysis; format: functional, cell-based
# NCI-H1975 [12] = test: Inhibition of EGFR mutant-mediated AKT phosphorylation in human NCI-H1975 cells harboring EGFR-mutant at 30 and 60 uM measured after 24 hrs by immunoblotting analysis; format: cell-based
# A549 [13] = test: Decrease in EGFR level in human A549 cells harboring wild-type EGFR at 30 and 60 uM measured after 24 hrs by immunoblotting analysis; format: functional, cell-based
# NCI-H460 [14] = test: Antiproliferative activity against human NCI-H460 cells harboring wild-type EGFR assessed as cell viability at 30 and 60 uM measured after 24 hrs; format: functional, cell-based
# NCI-H1650 [15] = test: Increase in PARP level in human NCI-H1650 cells harboring EGFR-mutant at 30 and 60 uM by immunoblotting analysis; format: functional, cell-based
# NCI-H1650 [16] = test: Increase in cleaved caspase3 level in human NCI-H1650 cells harboring EGFR-mutant at 30 and 60 uM by immunoblotting analysis; format: functional, cell-based
# NCI-H1975 [17] = test: Increase in PARP level in human NCI-H1975 cells harboring EGFR-mutant at 30 and 60 uM by immunoblotting analysis; format: functional, cell-based
# PC-9 [18] = test: Induction of apoptosis in human gefitinib-resistant PC9 cells harboring EGFR T790M mutant assessed as cell death at 30 and 60 uM measured after 24 hrs by Annexin-V/PI staining based analysis; format: functional
# [19] = target: Epidermal growth factor receptor (Homo sapiens) (UniProt P00533); test: Inhibition of EGFR-mediated AKT phosphorylation in human NCI-H460 cells harboring wild-type EGFR at 30 and 60 uM measured after 24 hrs by immunoblotting analysis; format: cell-based
# NCI-H1650 [20] = test: Inhibition of EGFR mutant-mediated AKT phosphorylation in human NCI-H1650 cells harboring EGFR-mutant at 30 and 60 uM measured after 24 hrs by immunoblotting analysis; format: cell-based
# NCI-H1650 [21] = test: Antiproliferative activity against human NCI-H1650 cells harboring EGFR-mutant assessed as cell viability measured after 24 hrs; format: functional, cell-based
# NCI-H1650 [22] = test: Induction of apoptosis in human NCI-H1650 cells harboring EGFR-mutant assessed as cell death at 60 uM in presence of NAC; format: functional, cell-based
# NCI-H460 [23] = test: Increase in cleaved caspase3 level in human NCI-H460 cells harboring wild-type EGFR at 30 and 60 uM by immunoblotting analysis; format: functional, cell-based
# NCI-H1975 [24] = test: Induction of EGFR turnover in human NCI-H1975 cells harboring EGFR-mutant assessed as receptor half life […] at 60 uM in presence of cycloheximide by immunoblotting analysis; format: functional, cell-based
# NCI-H1975 [25] = test: Induction of EGFR turnover in human NCI-H1975 cells harboring EGFR-mutant at 60 uM measured after 24 hrs in presence of proteosome inhibitor bortezomib by immunoblotting analysis; format: functional, cell-based
# NCI-H1650 [26] = test: Inhibition of EGFR mutant-mediated ERK phosphorylation in human NCI-H1650 cells harboring EGFR-mutant measured after 24 hrs by immunoblotting analysis; format: cell-based
# NCI-H1650 [27] = test: Induction of apoptosis in human NCI-H1650 cells harboring EGFR-mutant assessed as cell death measured after 24 hrs by Annexin-V/PI staining based analysis; format: functional
# NCI-H1975 [28] = test: Inhibition of EGFR mutant-mediated ERK phosphorylation in human NCI-H1975 cells harboring EGFR-mutant at 30 and 60 uM measured after 24 hrs by immunoblotting analysis; format: cell-based
# NCI-H1975 [29] = test: Effect on ROS level in human NCI-H1975 cells harboring EGFR-mutant at 60 uM; format: functional, cell-based
# [30] = target: Epidermal growth factor receptor (Homo sapiens) (UniProt P00533); test: Inhibition of EGFR-mediated AKT phosphorylation in human A549 cells harboring wild-type EGFR at 30 and 60 uM measured after 24 hrs by immunoblotting analysis; format: cell-based
# PC-9 [31] = test: Increase in PARP level in human gefitinib-resistant PC9 cells harboring EGFR T790M mutant at 30 and 60 uM by immunoblotting analysis; format: functional, cell-based
# NCI-H1975 [32] = test: Induction of apoptosis in human NCI-H1975 harboring EGFR-mutant cells assessed as cell death measured after 24 hrs by Annexin-V/PI staining based analysis; format: functional
# PC-9 [33] = test: Decrease in EGFR level in human erlotinib-resistant PC9 cells harboring EGFR T790M mutant at 30 and 60 uM measured after 24 hrs by immunoblotting analysis; format: functional, cell-based
# NCI-H1975 [34] = test: Induction of apoptosis in human NCI-H1975 cells harboring EGFR-mutant assessed as cell death at 60 uM in presence of NAC; format: functional, cell-based
# NCI-H1975 [35] = test: Antiproliferative activity against human NCI-H1975 cells harboring EGFR-mutant assessed as cell viability measured after 24 hrs; format: functional, cell-based
# NCI-H460 [36] = test: Decrease in EGFR level in human NCI-H460 cells harboring wild-type EGFR at 30 and 60 uM measured after 24 hrs by immunoblotting analysis; format: functional, cell-based
# A549 [37] = test: Increase in PARP level in human A549 cells harboring wild-type EGFR at 30 and 60 uM by immunoblotting analysis; format: functional, cell-based
# [38] = target: Epidermal growth factor receptor (Homo sapiens) (UniProt P00533); test: Inhibition of EGFR-mediated ERK phosphorylation in human NCI-H460 cells harboring wild-type EGFR at 30 and 60 uM measured after 24 hrs by immunoblotting analysis; format: cell-based
# NCI-H1975 [39] = test: Increase in cleaved caspase3 level in human NCI-H1975 cells harboring EGFR-mutant at 30 and 60 uM by immunoblotting analysis; format: functional, cell-based
# NCI-H1975 [40] = test: Decrease in EGFR level in human NCI-H1975 cells harboring EGFR-mutant measured after 24 hrs by immunoblotting analysis; format: functional, cell-based
# A549 [41] = test: Induction of apoptosis in human A549 cells harboring wild-type EGFR assessed as cell death at 30 and 60 uM measured after 24 hrs by Annexin-V/PI staining based analysis; format: functional
# NCI-H460 [42] = test: Induction of apoptosis in human NCI-H460 cells harboring wild-type EGFR assessed as cell death at 30 and 60 uM measured after 24 hrs by Annexin-V/PI staining based analysis; format: functional
# PC-9 [43] = test: Decrease in EGFR level in human gefitinib-resistant PC9 cells harboring EGFR T790M mutant at 30 and 60 uM measured after 24 hrs by immunoblotting analysis; format: functional, cell-based
# A549 [44] = test: Antiproliferative activity against human A549 cells harboring wild-type EGFR assessed as cell viability at 30 and 60 uM measured after 24 hrs; format: functional, cell-based
# PC-9 [45] = test: Antiproliferative activity against human gefitinib-resistant PC9 cells harboring EGFR T790M mutant assessed as cell viability measured after 24 hrs; format: functional, cell-based
# Epidermal growth factor receptor (Homo sapiens), sequence (P00533 whole entry): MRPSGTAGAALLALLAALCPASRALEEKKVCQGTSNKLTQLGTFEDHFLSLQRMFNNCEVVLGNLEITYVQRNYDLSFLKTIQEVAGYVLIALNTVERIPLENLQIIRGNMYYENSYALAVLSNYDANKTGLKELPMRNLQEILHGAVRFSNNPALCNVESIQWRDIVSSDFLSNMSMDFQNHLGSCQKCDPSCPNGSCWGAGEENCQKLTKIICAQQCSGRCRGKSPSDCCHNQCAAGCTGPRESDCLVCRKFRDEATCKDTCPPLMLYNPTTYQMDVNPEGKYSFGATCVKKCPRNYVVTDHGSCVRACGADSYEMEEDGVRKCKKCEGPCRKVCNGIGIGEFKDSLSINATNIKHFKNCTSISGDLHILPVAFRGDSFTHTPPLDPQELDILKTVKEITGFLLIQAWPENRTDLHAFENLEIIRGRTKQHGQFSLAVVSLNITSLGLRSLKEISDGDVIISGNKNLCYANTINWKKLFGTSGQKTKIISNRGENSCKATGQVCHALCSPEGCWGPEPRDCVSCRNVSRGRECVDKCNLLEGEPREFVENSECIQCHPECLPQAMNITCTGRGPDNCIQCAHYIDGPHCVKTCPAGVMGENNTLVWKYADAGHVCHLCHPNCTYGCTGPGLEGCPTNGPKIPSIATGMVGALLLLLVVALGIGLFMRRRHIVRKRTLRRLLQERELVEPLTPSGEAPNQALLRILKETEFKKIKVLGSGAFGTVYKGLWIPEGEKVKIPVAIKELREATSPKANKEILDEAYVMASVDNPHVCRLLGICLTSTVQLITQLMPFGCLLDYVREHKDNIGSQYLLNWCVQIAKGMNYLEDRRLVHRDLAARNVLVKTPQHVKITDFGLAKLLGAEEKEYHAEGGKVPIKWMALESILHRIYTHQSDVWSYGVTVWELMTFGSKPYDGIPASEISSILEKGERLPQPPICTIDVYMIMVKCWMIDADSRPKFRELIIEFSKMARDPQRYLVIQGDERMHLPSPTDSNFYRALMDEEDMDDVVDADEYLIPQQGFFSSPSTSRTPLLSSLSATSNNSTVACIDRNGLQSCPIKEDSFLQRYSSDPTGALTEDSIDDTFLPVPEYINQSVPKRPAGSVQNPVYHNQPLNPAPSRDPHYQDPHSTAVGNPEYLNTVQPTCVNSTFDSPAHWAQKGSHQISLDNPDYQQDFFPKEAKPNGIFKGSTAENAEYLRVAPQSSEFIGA
smiles,measurement,setting,value
O=C(O)c1cc(O)c(O)c(O)c1,Activity,NCI-H1975 [1],inactive
same,Activity,PC-9 [2],Active
same,inhibition,NCI-H1650 [3],Dose-dependent effect
same,Activity,PC-9 [4],Dose-dependent effect
same,Activity,A549 [5],inactive
same,inhibition,[6],inactive
same,Activity,NCI-H1650 [7],inactive
same,Activity,PC-9 [8],Active
same,Activity,NCI-H460 [9],inactive
same,Activity,PC-9 [10],Active
same,Activity,PC-9 [11],Active
same,inhibition,NCI-H1975 [12],Active
same,inhibition,A549 [13],inactive
same,Activity,NCI-H460 [14],inactive
same,Activity,NCI-H1650 [15],Active
same,Activity,NCI-H1650 [16],Active
same,Activity,NCI-H1975 [17],Active
same,Activity,PC-9 [18],Active
same,inhibition,[19],inactive
same,inhibition,NCI-H1650 [20],Active
same,Activity,NCI-H1650 [21],Dose-dependent effect
same,Activity,NCI-H1650 [22],Active
same,Activity,NCI-H460 [23],inactive
same,Activity,NCI-H1975 [24],inactive
same,Activity,NCI-H1975 [25],inactive
same,inhibition,NCI-H1650 [26],Active
same,Activity,NCI-H1650 [27],Dose-dependent effect
same,inhibition,NCI-H1975 [28],Active
same,Activity,NCI-H1975 [29],inactive
same,inhibition,[30],inactive
same,Activity,PC-9 [31],Active
same,Activity,NCI-H1975 [32],Dose-dependent effect
same,Activity,PC-9 [33],Active
same,Activity,NCI-H1975 [34],Active
same,Activity,NCI-H1975 [35],Dose-dependent effect
same,inhibition,NCI-H460 [36],inactive
same,Activity,A549 [37],inactive
same,inhibition,[38],inactive
same,Activity,NCI-H1975 [39],Active
same,inhibition,NCI-H1975 [40],Dose-dependent effect
same,Activity,A549 [41],Active
same,Activity,NCI-H460 [42],Active
same,Activity,PC-9 [43],Active
same,Activity,A549 [44],inactive
same,Activity,PC-9 [45],Dose-dependent effect
